Measured values as given in PMC9490060, “Synthesis and evaluation of anticancer activity of quillaic acid derivatives: A cell cycle arrest and apoptosis inducer through NF-κB and MAPK pathways” (Frontiers in Chemistry, 2022).

Assays:
p38 = assay: Western blot, MAPK signaling pathway: p38; type: cell-based, human; conditions: HCT116, 10 μM, 24 h
Description: (§1) Extracellular signal-regulated kinases are the most closely related MAPK. MAPK, a family of serine/threonine protein kinases, is also an important transmitter of signaling from the cell surface to the nucleus, and it is involved in the regulation of many physiological processes, including apoptosis ([Bian et al., 2021]). The MAPK pathway has been implicated in regulating tumor angiogenesis, proliferation, metastasis and invasion ([Ko et al., 2017]). MAPK family is mainly composed of ERK, p38 and JNK subfamily.
(§2) FIGURE 9 Effect of compound E on […] in HCT116 cells. Cells were pretreated with the various concentrations of compound E (2.5, 5 and 10 μM) for 24 h. The expression of phospho-ERK, ERK, phospho-JNK, JNK, phospho-p38, p38 were analyzed by Western blot. ***p < 0.001, **p < 0.01, *p < 0.05 vs. control group. The error bars represent the mean ± SD for three independent experiments.
(§3) HCT116 cells were cultured with different concentrations of compound E for 24 h. Then, the floating cells were collected and washed twice with ice-cold PBS. Add cold RIPA buffer. After the cells were lysed on ice for 20 min, the lysate was centrifuged at 12,000 rpm for 15 min at 4°C. The BCA method determines the protein concentration. […] The protein is detected by electrochemiluminescence (Bio-Rad, CA, United State).

HCT116 cells [1] = assay: H&E staining of morphological changes; type: cell-based, human; conditions: HCT116, 2.5, 5, 10 μM, 24 h
Method: Induction of apoptosis is the mechanism of action of many anti-proliferative drugs. When cells undergo apoptosis, they generally also undergo morphological changes ([Liu et al., 2009]). Therefore, we used H&E staining to assess morphological changes in the cells.
FIGURE 5 Cell morphological alterations and nuclear changes associated with HCT116 cells after incubation with varying concentrations E (0, 2.5, 5, 10 μM) for 24 h were assessed by staining with H&E and visualized by microscopy.

[2] = test system: HCT116 (human colorectal cancer cell line); assay: MTT anti-proliferative assay, HCT116; type: cell-based; conditions: means ± SD, n = 3
In short: (§4)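 Cells seeded at 1 × 10^4–1.2 × 10^4 per well were allowed to adhere 24 h, then exposed 48 h at 37 °C, 5% CO2 to compound at 1.25, 2.5, 5 and 10 μM (DMSO ≤0.1%). MCF-7 and HepG2 were grown in DMEM, HCT116 and BEL7402 in RPMI 1640, each with 10% FBS. MTT (final 2 mg/ml) was added for 4 h; formazan was dissolved in DMSO and read at 492 nm.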

ERK = assay: Western blot, MAPK signaling pathway: ERK; type: cell-based, human; conditions: HCT116, 10 μM, 24 h
Description: as §1, §2, §3

HCT116 cells [3] = assay: Colony formation assay; type: cell-based, human; conditions: HCT116, 2.5, 5, 10 μM, 7 days
Method: The colony-forming cell assay was used to determine the ability of cells to proliferate and differentiate into colonies and thereby to investigate the anti-proliferative efficacy of compound E ([Lei et al., 2015]).
FIGURE 3 Colony formation of HCT116 cells inhibited by compound E. (A) HCT116 cells were incubated with varying concentrations of E (0, 2.5, 5, 10 μM) and stained with crystal violet. (B) The micrographic differences between the colonies. Images were taken of stained single colonies observed under a microscope.
Exponentially growing HCT116 cells (600 cells per well) were plated on 6-well plates with Roswell Park Memorial Institute (RPMI) 1,640 medium containing 10% fetal bovine serum (FBS). After incubating for 12 h, replace with fresh medium. Then, the cells were treated with different concentrations of compound E (2.5, 5 and 10 μM) dissolved in DMSO. Some cells only use DMSO as a negative control. Then incubate for another 7 days. Finally, the cells were fixed with 95% ethanol for 25 min, stained with 0.1% crystal violet for 15 min at room temperature, and then washed with PBS until the […] were completely removed.

[4] = test system: MCF-7 (human breast cancer cell line); assay: MTT anti-proliferative assay, MCF-7; type: cell-based; conditions: means ± SD, n = 3
In short: as §4

IC50 values HCT116 ([2]; 48 h incubation): strong activity
IC50 ([2]; Homo sapiens, HCT-116, 48 h incubation): 2.46 ± 0.44 µM
IC50 values MCF-7 ([4]; 48 h incubation): strong activity
IC50 ([4]; Homo sapiens, MCF7, 48 h incubation): 7.59 ± 1.78 µM
Structure (SMILES): CC1(C)CC[C@]2(C(=O)OCCn3nnnc3-c3ccccc3)[C@H](O)C[C@]3(C)C(=CC[C@@H]4[C@@]5(C)CC[C@H](O)[C@@](C)(C=O)[C@@H]5CC[C@]43C)[C@@H]2C1 [Compound E, 2-(5-phenyl-1H-tetrazol-1-yl)ethyl (4aR,5R,6aS,6bR,8aR,9S,10S,12aR,12bR,14bS)-9-formyl-5,10-dihydroxy-2,2,6a,6b,9,12a-hexamethyl-1,3,4,5,6,6a,6b,7,8,8a,9,10,11,12,12a,12b,13,14b-octadecahydropicene-4a (2H)-carboxylate]
phosphorylation level of p38 (p38): down-regulated
morphological changes (H&E staining) (HCT116 cells [1]): significant apoptotic morphological changes
phosphorylation level of ERK (ERK): down-regulated
colony formation (number and size of colonies) (HCT116 cells [3]): significantly decreased the number and size of colonies in a concentration-dependent manner
